Laboratory results from ChEMBL document CHEMBL6078723, “Novel steroidal β-carboline derivatives as promising antibacterial candidates against methicillin-resistant Staphylococcus aureus” (Eur J Med Chem, 2025).
The source made the active and inactive calls.

Tests used:
Staphylococcus aureus [1] = assay: Antibacterial activity against Staphylococcus aureus CGMCC1.8721; format: functional
Staphylococcus aureus [2] = assay: Antibacterial activity against methicillin-resistant Staphylococcus aureus CGMCC1.12409; format: functional
Staphylococcus aureus [3] = assay: Antibacterial activity against methicillin-resistant Staphylococcus aureus ATCC 33591; format: functional
Staphylococcus aureus [4] = assay: Bactericidal activity against Staphylococcus aureus CGMCC1.8721 by CLSI based method; format: functional
Staphylococcus aureus [5] = assay: Bactericidal activity against methicillin-resistant Staphylococcus aureus ATCC 43300 by CLSI based method; format: functional
HepG2 = assay: Cytotoxicity against human HepG2 cells at 40 uM by CCK8 assay relative to control; format: toxicity, cell-based; details: hepg2, 40 µM
[6] = Hemolytic activity in rabbit RBC; format: toxicity, cell-based, Oryctolagus cuniculus, Erythrocyte; details: rabbit red blood cells
Staphylococcus aureus [7] = assay: Induction of bacterial regrowth of Staphylococcus aureus CGMCC1.8721 at 4 to 8 times MIC measured after 24 hrs by time kill assay; format: functional, organism-based
Staphylococcus aureus [8] = assay: Induction of resistance development in Staphylococcus aureus CGMCC1.8721 at sub-lethal concentration following serial passages for 30 days; format: functional, organism-based; details: time 30.0 day
Staphylococcus aureus [9] = assay: Antibacterial activity against Staphylococcus aureus CGMCC1.8721 in presence of K+ (reference value: 0.5 ug/ml); format: functional
Staphylococcus aureus [10] = assay: Antibacterial activity against Staphylococcus aureus CGMCC1.8721 in presence of Mg2+ (reference value: 0.5 ug/ml); format: functional
Staphylococcus aureus [11] = assay: Antibacterial activity against Staphylococcus aureus CGMCC1.8721 in presence of Fe2+ (reference value: 0.5 ug/ml); format: functional
Staphylococcus aureus [12] = assay: Antibacterial activity against Staphylococcus aureus CGMCC1.8721 in presence of Fe3+ (reference value: 0.5 ug/ml); format: functional
Staphylococcus aureus [13] = assay: Antibacterial activity against Staphylococcus aureus CGMCC1.8721 in presence of H2PO4- (reference value: 0.5 ug/ml); format: functional
Staphylococcus aureus [14] = assay: Antibacterial activity against Staphylococcus aureus CGMCC1.8721 at pH 6.5 (reference value: 0.5 ug/ml); format: functional
Staphylococcus aureus [15] = assay: Antibacterial activity against Staphylococcus aureus CGMCC1.8721 at 36.5 degreeC (reference value: 0.5 ug/ml); format: functional
Staphylococcus aureus [16] = assay: Antibacterial activity against methicillin-resistant Staphylococcus aureus ATCC 43300 in presence of K+ (reference value: 0.5 ug/ml); format: functional
Staphylococcus aureus [17] = assay: Antibacterial activity against methicillin-resistant Staphylococcus aureus ATCC 43300 in presence of Fe2+ (reference value: 0.5 ug/ml); format: functional
Staphylococcus aureus [18] = assay: Antibacterial activity against methicillin-resistant Staphylococcus aureus ATCC 43300 in presence of Fe3+ (reference value: 0.5 ug/ml); format: functional
Staphylococcus aureus [19] = assay: Antibacterial activity against methicillin-resistant Staphylococcus aureus CGMCC1.12409 in presence of Na+ (reference value: 0.5 ug/ml); format: functional
Staphylococcus aureus [20] = assay: Antibacterial activity against methicillin-resistant Staphylococcus aureus CGMCC1.12409 in presence of K+ (reference value: 0.5 ug/ml); format: functional
Staphylococcus aureus [21] = assay: Antibacterial activity against methicillin-resistant Staphylococcus aureus CGMCC1.12409 in presence of Zn2+ (reference value: 0.5 ug/ml); format: functional
Staphylococcus aureus [22] = assay: Antibacterial activity against methicillin-resistant Staphylococcus aureus CGMCC1.12409 in presence of H2PO4- (reference value: 0.5 ug/ml); format: functional
Staphylococcus aureus [23] = assay: Antibacterial activity against methicillin-resistant Staphylococcus aureus CGMCC1.12409 at 36.5 degreeC (reference value: 0.5 ug/ml); format: functional
Staphylococcus aureus [24] = assay: Antibacterial activity against methicillin-resistant Staphylococcus aureus CGMCC1.12409 at 37.5 degreeC (reference value: 0.5 ug/ml); format: functional
Staphylococcus aureus [25] = assay: Antibacterial activity against methicillin-resistant Staphylococcus aureus ATCC 33591 in presence of K+ (reference value: 1 ug/ml); format: functional
Staphylococcus aureus [26] = assay: Antibacterial activity against methicillin-resistant Staphylococcus aureus ATCC 33591 in presence of Ca2+ (reference value: 1 ug/ml); format: functional
Staphylococcus aureus [27] = assay: Antibacterial activity against methicillin-resistant Staphylococcus aureus ATCC 33591 at pH 6.5 (reference value: 1 ug/ml); format: functional
Staphylococcus aureus [28] = assay: Antibacterial activity against methicillin-resistant Staphylococcus aureus ATCC 33591 at pH 8 (reference value: 1 ug/ml); format: functional
Staphylococcus aureus [29] = assay: Antibacterial activity against methicillin-resistant Staphylococcus aureus ATCC 33591 at 36.5 degreeC (reference value: 1 ug/ml); format: functional
Staphylococcus aureus [30] = assay: Antibacterial activity against methicillin-resistant Staphylococcus aureus ATCC 33591 at 37.5 degreeC (reference value: 1 ug/ml); format: functional
Staphylococcus aureus [31] = assay: Antibiofilm activity against Staphylococcus aureus CGMCC1.8721 by crystal violet staining based analysis; format: functional, organism-based
Staphylococcus aureus [32] = assay: Induction of membrane depolarization in Staphylococcus aureus CGMCC1.8721 by DiSC3(5) dye based analysis; format: functional, organism-based
Staphylococcus aureus [33] = assay: Induction of loss of membrane integrity in Staphylococcus aureus CGMCC1.8721 assessed as protein leakage; format: functional, organism-based
Staphylococcus aureus [34] = assay: Antibacterial activity against Staphylococcus aureus CGMCC1.8721 in presence of phosphatidylethanolamine; format: functional, organism-based
Staphylococcus aureus [35] = assay: Antibacterial activity against Staphylococcus aureus CGMCC1.8721 in presence of LTA; format: functional, organism-based
Staphylococcus aureus [36] = assay: Antibacterial activity against Staphylococcus aureus CGMCC1.8721 in presence of dNTP; format: functional, organism-based
Staphylococcus aureus [37] = assay: Induction of cell membrane damage in Staphylococcus aureus CGMCC1.8721 assessed as red fluorescence at 4 times MIC by SYTO9/PI staining based CLSM analysis; format: functional, organism-based
Staphylococcus aureus [38] = assay: Induction of morphological change in Staphylococcus aureus CGMCC1.8721 assessed as appearance of surface folds at MIC by […] SEM analysis; format: functional, organism-based
Staphylococcus aureus [39] = assay: Induction of morphological change in Staphylococcus aureus CGMCC1.8721 assessed as cell rupture at 4 times MIC by […] SEM analysis; format: functional, organism-based
Staphylococcus aureus [40] = assay: Induction of morphological change in Staphylococcus aureus CGMCC1.8721 assessed as leakage of intracellular components at 4 times MIC by […] SEM analysis; format: functional, organism-based
Staphylococcus aureus [41] = assay: Antibacterial activity against methicillin-resistant Staphylococcus aureus CGMCC1.12409 infected in mouse model assessed as reduction in bacterial load at infection site at 5 mg/kg measured for 5 days relative to control; format: functional; set-up: scale not given: the % may be the effect or the level left; details: time 5 day
Staphylococcus aureus [42] = assay: Antibacterial activity against methicillin-resistant Staphylococcus aureus CGMCC1.12409 infected in mouse model assessed as reduction in bacterial load at infection site at 10 mg/kg measured for 5 days relative to control; format: functional; set-up: scale not given: the % may be the effect or the level left; details: time 5 day
Staphylococcus aureus [43] = assay: Antibacterial activity against methicillin-resistant Staphylococcus aureus CGMCC1.12409 infected in mouse model assessed as smooth dorsal skin at 10 mg/kg measured for 5 days; format: functional, organism-based; details: route sc, time 5.0 day
Staphylococcus aureus [44] = assay: Antibacterial activity against methicillin-resistant Staphylococcus aureus CGMCC1.12409 infected in mouse model assessed as reduction in inflammation in skin tissues at 5 to 10 mg/kg measured for 5 days by H and E staining based analysis; format: functional, organism-based; details: dose 5-10 mg/kg, time 5.0 day

COc1ccc2[nH]c3c(CC[C@H](C)[C@H]4CC[C@H]5[C@@H]6[C@H](O)C[C@@H]7C[C@H](O)CC[C@]7(C)[C@H]6C[C@H](O)[C@]45C)[n+](Cc4ccc(Cl)cc4)ccc3c2c1.[Br-]
0.5 µg/mL: MIC (Staphylococcus aureus [1]) | MIC (Staphylococcus aureus [2]) | MIC (Staphylococcus aureus [9]) | MIC (Staphylococcus aureus [10]) | MIC (Staphylococcus aureus [11]) | MIC (Staphylococcus aureus [12]) | MIC (Staphylococcus aureus [13]) | MIC (Staphylococcus aureus [14]) | MIC (Staphylococcus aureus [15]) | MIC (Staphylococcus aureus [16]) | MIC (Staphylococcus aureus [17]) | MIC (Staphylococcus aureus [18]) | MIC (Staphylococcus aureus [23]) | MIC (Staphylococcus aureus [24])
inactive: Activity (Staphylococcus aureus [7]) Not active; Compound Activity Was Higher Than That Of Vancomycin | Activity (Staphylococcus aureus [8])
> 256 µg/mL: HC50 [6]
1 µg/mL: MIC (Staphylococcus aureus [3]) | MBC (Staphylococcus aureus [4]) | MBC (Staphylococcus aureus [5]) | MIC (Staphylococcus aureus [19]) | MIC (Staphylococcus aureus [20]) | MIC (Staphylococcus aureus [21]) | MIC (Staphylococcus aureus [22]) | MIC (Staphylococcus aureus [25]) | MIC (Staphylococcus aureus [26]) | MIC (Staphylococcus aureus [27]) | MIC (Staphylococcus aureus [28]) | MIC (Staphylococcus aureus [29]) | MIC (Staphylococcus aureus [30])
Non-toxic: Activity (HepG2)
active: Activity (Staphylococcus aureus [31]) Dose-dependent-effect | Activity (Staphylococcus aureus [32]) Dose-dependent-effect | Activity (Staphylococcus aureus [33]) Dose-dependent-effect | Activity (Staphylococcus aureus [34]) | Activity (Staphylococcus aureus [35]) | Activity (Staphylococcus aureus [36]) | Activity (Staphylococcus aureus [37]) | Activity (Staphylococcus aureus [38]) | Activity (Staphylococcus aureus [39]) | Activity (Staphylococcus aureus [40]) | Activity (Staphylococcus aureus [43]) | Activity (Staphylococcus aureus [44])
98.55%: Activity (Staphylococcus aureus [42])
94.33%: Activity (Staphylococcus aureus [41])
